Experimental data from ChEMBL document CHEMBL1671662, “In vitro activities of telavancin and six comparator agents against anaerobic bacterial isolates” (2009).
Converted amounts (≈) assume the structure as drawn.

How the values were obtained:
Assay type in all cases: functional
Clostridium bolteae = assay: Antibacterial activity against Clostridium bolteae by CLSI M11-A6 agar dilution method; conditions: Enterocloster bolteae
[1] = test system: Enterocloster clostridioformis; assay: Antibacterial activity against Clostridium clostridioforme by CLSI M11-A6 agar dilution method
Clostridioides difficile = assay: Antibacterial activity against Clostridium difficile by CLSI M11-A6 agar dilution method
Clostridium hathewayi = assay: Antibacterial activity against Clostridium hathewayi by CLSI M11-A6 agar dilution method; conditions: Hungatella hathewayi
Clostridium subterminale = assay: Antibacterial activity against Clostridium subterminale by CLSI M11-A6 agar dilution method
Clostridium beijerinckii = assay: Antibacterial activity against Clostridium beijerinckii by CLSI M11-A6 agar dilution method
[2] = test system: Clostridium celerecrescens; assay: Antibacterial activity against Clostridium celerecrescens by CLSI M11-A6 agar dilution method; conditions: Lacrimispora celerecrescens
Clostridium leptum = assay: Antibacterial activity against Clostridium leptum by CLSI M11-A6 agar dilution method
[3] = test system: Paeniclostridium sordellii; assay: Antibacterial activity against Clostridium sordellii by CLSI M11-A6 agar dilution method; conditions: Paraclostridium sordellii
Clostridium sporogenes = assay: Antibacterial activity against Clostridium sporogenes by CLSI M11-A6 agar dilution method
[4] = test system: Clostridium sporosphaeroides; assay: Antibacterial activity against Clostridium sporosphaeroides by CLSI M11-A6 agar dilution method; conditions: Faecalispora sporosphaeroides
Clostridium sp. = assay: Antibacterial activity against Clostridium sp. by CLSI M11-A6 agar dilution method
Bifidobacterium bifidum = assay: Antibacterial activity against Bifidobacterium bifidum by CLSI M11-A6 agar dilution method
Bifidobacterium dentium = assay: Antibacterial activity against Bifidobacterium dentium by CLSI M11-A6 agar dilution method
[5] = test system: Bifidobacterium pseudolongum; assay: Antibacterial activity against Bifidobacterium pseudolongum by CLSI M11-A6 agar dilution method
[6] = test system: Coprobacillus cateniformis; assay: Antibacterial activity against Coprobacillus cateniformis by CLSI M11-A6 agar dilution method
Coriobacterium = assay: Antibacterial activity against […] by CLSI M11-A6 agar dilution method
Eggerthella lenta = assay: Antibacterial activity against Eggerthella lenta by CLSI M11-A6 agar dilution method
[7] = test system: Propionibacterium propionicum; assay: Antibacterial activity against Propionibacterium propionicus by CLSI M11-A6 agar dilution method; conditions: Arachnia propionica
Ruminococcus gnavus = assay: Antibacterial activity against Ruminococcus gnavus by CLSI M11-A6 agar dilution method; conditions: Mediterraneibacter gnavus
Ruminococcus obeum = assay: Antibacterial activity against Ruminococcus obeum by CLSI M11-A6 agar dilution method; conditions: Blautia obeum
Ruminococcus albus = assay: Antibacterial activity against Ruminococcus albus by CLSI M11-A6 agar dilution method; conditions: Hominimerdicola alba
Blautia luti = assay: Antibacterial activity against Ruminococcus luti by CLSI M11-A6 agar dilution method
Ruminococcus lactaris = assay: Antibacterial activity against Ruminococcus lactaris by CLSI M11-A6 agar dilution method
Blautia producta = assay: Antibacterial activity against Ruminococcus productus by CLSI M11-A6 agar dilution method
Ruminococcus torques = assay: Antibacterial activity against Ruminococcus torques by CLSI M11-A6 agar dilution method; conditions: Mediterraneibacter torques
Finegoldia magna = assay: Antibacterial activity against Finegoldia magna by CLSI M11-A6 agar dilution method
[8] = test system: Peptoniphilus asaccharolyticus; assay: Antibacterial activity against Peptoniphilus asaccharolyticus by CLSI M11-A6 agar dilution method
[9] = test system: Peptostreptococcus anaerobius; assay: Antibacterial activity against Peptostreptococcus anaerobius by CLSI M11-A6 agar dilution method
Parvimonas micra = assay: Antibacterial activity against Peptostreptococcus micros by CLSI M11-A6 agar dilution method
Streptococcus anginosus = assay: Antibacterial activity against Streptococcus anginosus by CLSI M11-A6 agar dilution method
[10] = test system: Parabacteroides distasonis; assay: Antibacterial activity against Parabacteroides distasonis by CLSI M11-A6 agar dilution method
Parabacteroides merdae = assay: Antibacterial activity against Parabacteroides merdae by CLSI M11-A6 agar dilution method
Bacteroides ovatus = assay: Antibacterial activity against Bacteroides ovatus by CLSI M11-A6 agar dilution method
[11] = test system: Bacteroides thetaiotaomicron; assay: Antibacterial activity against Bacteroides thetaiotaomicron by CLSI M11-A6 agar dilution method
Bilophila wadsworthia = assay: Antibacterial activity against Bilophila wadsworthia by CLSI M11-A6 agar dilution method
Prevotella bivia = assay: Antibacterial activity against Prevotella bivia by CLSI M11-A6 agar dilution method
Prevotella corporis = assay: Antibacterial activity against Prevotella corporis by CLSI M11-A6 agar dilution method
Prevotella nigrescens = assay: Antibacterial activity against Prevotella nigrescens by CLSI M11-A6 agar dilution method
Hoylesella loescheii = assay: Antibacterial activity against Prevotella loescheii by CLSI M11-A6 agar dilution method
Hoylesella oralis = assay: Antibacterial activity against Prevotella oralis by CLSI M11-A6 agar dilution method
Prevotella oris = assay: Antibacterial activity against Prevotella oris by CLSI M11-A6 agar dilution method; conditions: Segatella oris
[12] = test system: Sutterella wadsworthensis; assay: Antibacterial activity against Sutterella wadsworthensis by CLSI M11-A6 agar dilution method

SMILES: CCCCCCCCCCNCCN[C@@]1(C)C[C@H](O[C@H]2[C@H](Oc3c4cc5cc3Oc3ccc(cc3Cl)[C@@H](O)[C@@H](NC(=O)[C@@H](CC(C)C)NC)C(=O)N[C@@H](CC(N)=O)C(=O)N[C@H]5C(=O)N[C@H]3C(=O)N[C@H](C(=O)N[C@H](C(=O)O)c5cc(O)c(CNCP(=O)(O)O)c(O)c5-c5cc3ccc5O)[C@H](O)c3ccc(c(Cl)c3)O4)O[C@H](CO)[C@@H](O)[C@@H]2O)O[C@@H](C)[C@H]1O [TELAVANCIN]
- MIC50 (Clostridium bolteae): 4 µg/mL (≈ 2.28 µM)
- MIC90 (Clostridium bolteae): 8 µg/mL (≈ 4.56 µM)
- MIC50 [1]: 4 µg/mL (≈ 2.28 µM)
- MIC90 [1]: 8 µg/mL (≈ 4.56 µM)
- MIC50 (Clostridioides difficile): 0.25 µg/mL (≈ 0.142 µM)
- MIC90 (Clostridioides difficile): 0.25 µg/mL (≈ 0.142 µM)
- MIC50 (Clostridium hathewayi): 0.5 µg/mL (≈ 0.285 µM)
- MIC90 (Clostridium hathewayi): 1 µg/mL (≈ 0.57 µM)
- MIC (Clostridium subterminale): ≤ 0.12 µg/mL
- MIC50 (Clostridium subterminale): ≤ 0.12 µg/mL
- MIC90 (Clostridium subterminale): ≤ 0.12 µg/mL
- MIC50 (Clostridium beijerinckii): ≤ 0.12 µg/mL
- MIC90 (Clostridium beijerinckii): 0.25 µg/mL (≈ 0.142 µM)
- MIC50 [2]: ≤ 0.12 µg/mL
- MIC90 [2]: 0.25 µg/mL (≈ 0.142 µM)
- MIC50 (Clostridium leptum): ≤ 0.12 µg/mL
- MIC90 (Clostridium leptum): 0.25 µg/mL (≈ 0.142 µM)
- MIC50 [3]: ≤ 0.12 µg/mL
- MIC90 [3]: 0.25 µg/mL (≈ 0.142 µM)
- MIC50 (Clostridium sporogenes): ≤ 0.12 µg/mL
- MIC90 (Clostridium sporogenes): 0.25 µg/mL (≈ 0.142 µM)
- MIC50 [4]: ≤ 0.12 µg/mL
- MIC90 [4]: 0.25 µg/mL (≈ 0.142 µM)
- MIC50 (Clostridium sp.): ≤ 0.12 µg/mL
- MIC90 (Clostridium sp.): 0.25 µg/mL (≈ 0.142 µM)
- MIC50 (Bifidobacterium bifidum): ≤ 0.12 µg/mL
- MIC90 (Bifidobacterium bifidum): 0.5 µg/mL (≈ 0.285 µM)
- MIC50 (Bifidobacterium dentium): ≤ 0.12 µg/mL
- MIC90 (Bifidobacterium dentium): 0.5 µg/mL (≈ 0.285 µM)
- MIC50 [5]: ≤ 0.12 µg/mL
- MIC90 [5]: 0.5 µg/mL (≈ 0.285 µM)
- MIC50 [6]: ≤ 0.12 µg/mL
- MIC90 [6]: 0.5 µg/mL (≈ 0.285 µM)
- MIC50 (Coriobacterium): ≤ 0.12 µg/mL
- MIC90 (Coriobacterium): 0.5 µg/mL (≈ 0.285 µM)
- MIC50 (Eggerthella lenta): ≤ 0.12 µg/mL
- MIC90 (Eggerthella lenta): 0.5 µg/mL (≈ 0.285 µM)
- MIC50 [7]: ≤ 0.12 µg/mL
- MIC90 [7]: 0.5 µg/mL (≈ 0.285 µM)
- MIC (Ruminococcus gnavus): ≤ 0.12 µg/mL
- MIC50 (Ruminococcus gnavus): ≤ 0.12 µg/mL
- MIC90 (Ruminococcus gnavus): ≤ 0.12 µg/mL
- MIC (Ruminococcus obeum): ≤ 0.12 µg/mL
- MIC50 (Ruminococcus obeum): ≤ 0.12 µg/mL
- MIC90 (Ruminococcus obeum): ≤ 0.12 µg/mL
- MIC50 (Ruminococcus albus): ≤ 0.12 µg/mL
- MIC90 (Ruminococcus albus): ≤ 0.12 µg/mL
- MIC50 (Blautia luti): ≤ 0.12 µg/mL
- MIC90 (Blautia luti): ≤ 0.12 µg/mL
- MIC50 (Ruminococcus lactaris): ≤ 0.12 µg/mL
- MIC90 (Ruminococcus lactaris): ≤ 0.12 µg/mL
- MIC50 (Blautia producta): ≤ 0.12 µg/mL
- MIC90 (Blautia producta): ≤ 0.12 µg/mL
- MIC50 (Ruminococcus torques): ≤ 0.12 µg/mL
- MIC90 (Ruminococcus torques): ≤ 0.12 µg/mL
- MIC50 (Finegoldia magna): ≤ 0.12 µg/mL
- MIC90 (Finegoldia magna): 0.25 µg/mL (≈ 0.142 µM)
- MIC50 [8]: ≤ 0.12 µg/mL
- MIC90 [8]: 0.25 µg/mL (≈ 0.142 µM)
- MIC50 [9]: ≤ 0.12 µg/mL
- MIC90 [9]: 0.25 µg/mL (≈ 0.142 µM)
- MIC50 (Parvimonas micra): ≤ 0.12 µg/mL
- MIC90 (Parvimonas micra): 0.25 µg/mL (≈ 0.142 µM)
- MIC50 (Streptococcus anginosus): ≤ 0.12 µg/mL
- MIC90 (Streptococcus anginosus): ≤ 0.12 µg/mL
- MIC [10]: > 64 µg/mL
- MIC50 [10]: > 64 µg/mL
- MIC90 [10]: > 64 µg/mL
- MIC (Parabacteroides merdae): > 64 µg/mL
- MIC50 (Parabacteroides merdae): > 64 µg/mL
- MIC90 (Parabacteroides merdae): > 64 µg/mL
- MIC (Bacteroides ovatus): > 64 µg/mL
- MIC50 (Bacteroides ovatus): > 64 µg/mL
- MIC90 (Bacteroides ovatus): > 64 µg/mL
- MIC50 [11]: > 64 µg/mL
- MIC90 [11]: > 64 µg/mL
- MIC (Bilophila wadsworthia): > 64 µg/mL
- MIC50 (Bilophila wadsworthia): > 64 µg/mL
- MIC90 (Bilophila wadsworthia): > 64 µg/mL
- MIC50 (Prevotella bivia): 8 µg/mL (≈ 4.56 µM)
- MIC90 (Prevotella bivia): 64 µg/mL (≈ 36.5 µM)
- MIC50 (Prevotella corporis): 8 µg/mL (≈ 4.56 µM)
- MIC90 (Prevotella corporis): 64 µg/mL (≈ 36.5 µM)
- MIC50 (Prevotella nigrescens): 8 µg/mL (≈ 4.56 µM)
- MIC90 (Prevotella nigrescens): 64 µg/mL (≈ 36.5 µM)
- MIC50 (Hoylesella loescheii): 8 µg/mL (≈ 4.56 µM)
- MIC90 (Hoylesella loescheii): 64 µg/mL (≈ 36.5 µM)
- MIC50 (Hoylesella oralis): 8 µg/mL (≈ 4.56 µM)
- MIC90 (Hoylesella oralis): 64 µg/mL (≈ 36.5 µM)
- MIC50 (Prevotella oris): 8 µg/mL (≈ 4.56 µM)
- MIC90 (Prevotella oris): 64 µg/mL (≈ 36.5 µM)
- MIC [12]: > 64 µg/mL
- MIC50 [12]: > 64 µg/mL
- MIC90 [12]: > 64 µg/mL
